# Tested on: Colletotrichum lagenarium
# Experiment: Efficacy against Colletotrichum lagenarium on cucumber plants
# Settings: in vivo
smiles,measurement,value
[Cu] [copper],estimated LD90 rate for the control of Colletotrichum lagenarium on cucumber plants,200 ppm

# Reference: patent publication US6471976B1, “Copper complex bactericide/fungicide and method of making same” (priority 1990, dated 2002)
